The values below come from PubChem BioAssay AID270 (DTP/NCI, 2004).

The test system of this assay is BDF1 mice, s.c. Lewis lung carcinoma, T/C %. Put plainly: NCI In Vivo Anticancer Drug Screen. Data for tumor model Lewis Lung Carcinoma (subcutaneous) in B6D2F1 (BDF1) mice. A digest of the protocol:
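Tumor-bearing mice were treated with test compound, and either survival or tumor size was recorded. Values are the treated-group measurement divided by that of the vehicle-treated control group.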

[1] abbreviates: endpoint: median survival time, dose: 6.25 mg/kg/injection, schedule: Q01DX009 (ip), vehicle: saline with Tween-80, higher = longer survival.
Setting [2] is: endpoint: median survival time, dose: 12.5 mg/kg/injection, schedule: Q01DX009 (ip), vehicle: saline with Tween-80, higher = longer survival.
[3] abbreviates: endpoint: median survival time, dose: 25.0 mg/kg/injection, schedule: Q01DX009 (ip), vehicle: saline with Tween-80, higher = longer survival.
Setting [4] is: endpoint: median survival time, dose: 50.0 mg/kg/injection, schedule: Q01DX009 (ip), vehicle: saline with Tween-80, higher = longer survival.
[5] abbreviates: endpoint: median survival time, dose: 100.0 mg/kg/injection, schedule: Q01DX009 (ip), vehicle: saline with Tween-80, higher = longer survival.
The mark [6] stands for this setting: endpoint: median survival time, dose: 200.0 mg/kg/injection, schedule: Q01DX009 (ip), vehicle: saline with Tween-80, higher = longer survival.

Values joined by “and” are separate entries in the source; they are usually repeats but may differ in a detail not shown here. Identical values can stand only once. Inconclusive results are not listed. *1 amine or outer side, *2 acyl side, *3 side chain or, on linkers, in order; H or OH if unused. Where a SMILES comes first, the peptide text is derived from it. Bridges are numbered along the chain shown (N, C = ends). Roman numbers before positions name the chains, in order. [ ]: non-standard residue; d: D form. Actinocin(1to9) = Cc1c2oc3c(C)ccc(C(=O)[*:2])c3nc-2c(C(=O)[*:1])c(N)c1=O; NMeV = CN[CH](C(=O)O)C(C)C; Sar = CNCC(=O)O

Regarding `C#C[C@]1(O)CC[C@H]2[C@@H]3CCc4cc(O)ccc4[C@H]3CC[C@@]21C`, the T/C (endpoint: median survival time, dose: 1.25 mg/kg/injection, schedule: Q02DX009 (ip), vehicle: Klucel (hydroxypropylcellulose) (HPC), higher = longer survival) was 88 % of control; the T/C (endpoint: median survival time, dose: 2.5 mg/kg/injection, schedule: Q02DX009 (ip), vehicle: Klucel (hydroxypropylcellulose) (HPC), higher = longer survival) is 92 % of control; the T/C (endpoint: median survival time, dose: 5.0 mg/kg/injection, schedule: Q02DX009 (ip), vehicle: Klucel (hydroxypropylcellulose) (HPC), higher = longer survival) was 96 % of control; the T/C (endpoint: median survival time, dose: 10.0 mg/kg/injection, schedule: Q02DX009 (ip), vehicle: Klucel (hydroxypropylcellulose) (HPC), higher = longer survival) is 91 % of control and 101 % of control; the T/C (endpoint: median survival time, dose: 20.0 mg/kg/injection, schedule: Q02DX009 (ip), vehicle: Klucel (hydroxypropylcellulose) (HPC), higher = longer survival) is 104 % of control; the T/C (endpoint: median survival time, dose: 40.0 mg/kg/injection, schedule: Q02DX009 (ip), vehicle: Klucel (hydroxypropylcellulose) (HPC), higher = longer survival) is 108 % of control and 120 % of control.
`CCOC(=O)C1=NNC(=O)C1`: the T/C is 119 % of control (endpoint: mean tumor weight, dose: 222.0 mg/kg/injection, schedule: Q01DX011 (ip), vehicle: other, higher = larger tumour); 118 % of control (endpoint: mean tumor weight, dose: 333.0 mg/kg/injection, schedule: Q01DX011 (ip), vehicle: other, higher = larger tumour); 75 % of control (endpoint: mean tumor weight, dose: 500.0 mg/kg/injection, schedule: Q01DX011 (ip), vehicle: other, higher = larger tumour); 108 % of control (endpoint: mean tumor weight, dose: 750.0 mg/kg/injection, schedule: Q01DX011 (ip), vehicle: other, higher = larger tumour).
Consider `CC1=CC2=C(C=O)C(=O)[C@](C)(O)[C@@H](O)C2=CO1`, for which the T/C runs as follows: (endpoint: median survival time, dose: 1.56 mg/kg/injection, schedule: Q01DX009 (ip), vehicle: saline with Tween-80, higher = longer survival) 115 % of control; (endpoint: median survival time, dose: 3.13 mg/kg/injection, schedule: Q01DX009 (ip), vehicle: saline with Tween-80, higher = longer survival) 153 % of control; under setting [1], 89 % of control and 120 % of control; under setting [2], 109 % of control; under setting [3], 106 % of control.
In the case of `CC1=C/C(O)CC(=O)Cc2nc(co2)C(=O)N2CCC=C2C(=O)OC(C(C)C)C(C)/C=C\C(=O)NC/C=C\1` (configuration not stated), the T/C was 103 % of control (endpoint: median survival time, dose: 0.5 micrograms/kg/injection, schedule: Q01DX009 (ip), vehicle: saline, higher = longer survival); 94 % of control (endpoint: median survival time, dose: 1.0 micrograms/kg/injection, schedule: Q01DX009 (ip), vehicle: saline, higher = longer survival); 98 % of control (endpoint: median survival time, dose: 2.0 micrograms/kg/injection, schedule: Q01DX009 (ip), vehicle: saline, higher = longer survival); 99 % of control (endpoint: median survival time, dose: 4.0 micrograms/kg/injection, schedule: Q01DX009 (ip), vehicle: saline, higher = longer survival).
With `COc1ccc(-c2ccc(OC)c(OC)c2OC)c(N)c1`, the T/C is 58 % of control (endpoint: mean tumor weight, dose: 375.0 mg/kg/injection, schedule: Q01DX011 (ip), vehicle: carboxymethylcellulose (CMC), higher = larger tumour); 89 % of control (endpoint: mean tumor weight, dose: 500.0 mg/kg/injection, schedule: Q01DX011 (ip), vehicle: carboxymethylcellulose (CMC), higher = larger tumour); 74 % of control (endpoint: mean tumor weight, dose: 625.0 mg/kg/injection, schedule: Q01DX011 (ip), vehicle: carboxymethylcellulose (CMC), higher = larger tumour); 56 % of control (endpoint: mean tumor weight, dose: 750.0 mg/kg/injection, schedule: Q01DX011 (ip), vehicle: carboxymethylcellulose (CMC), higher = larger tumour); 101 % of control under setting [3]; 107 % of control under setting [4]. The T/C is 108 % of control under setting [5] and 106 % of control under setting [6].
`NC(=NCc1ccccc1)c1ccc(N=C(N)c2ccc(C(N)=Nc3ccc(C(N)=NCc4ccccc4)cc3)cc2)cc1`: the T/C by setting is: (endpoint: median survival time, dose: 2.5 mg/kg/injection, schedule: Q01DX009 (ip), vehicle: saline, higher = longer survival) 113 % of control; (endpoint: median survival time, dose: 5.0 mg/kg/injection, schedule: Q01DX009 (ip), vehicle: saline, higher = longer survival) 107 % of control; (endpoint: median survival time, dose: 10.0 mg/kg/injection, schedule: Q01DX009 (ip), vehicle: saline, higher = longer survival) 111 % of control.
Turning to `O=C(NC(Cc1ccccc1)C(=O)CCl)OCc1ccccc1` (configuration not stated), the T/C was 107 % of control (endpoint: median survival time, dose: 3.12 mg/kg/injection, schedule: Q01DX009 (ip), vehicle: saline with Tween-80, higher = longer survival); 87 % of control under setting [1]; 94 % of control under setting [2].
Consider `CC(C)C1C=C2CCC3C(C)(C(=O)O)CCCC3(C)C2CC1` (configuration not stated), for which the T/C by setting is: (endpoint: mean tumor weight, dose: 100.0 mg/kg/injection, schedule: Q01DX011 (ip), vehicle: carboxymethylcellulose (CMC), higher = larger tumour) 89 % of control; (endpoint: mean tumor weight, dose: 200.0 mg/kg/injection, schedule: Q01DX011 (ip), vehicle: carboxymethylcellulose (CMC), higher = larger tumour) 38 % of control.
For the molecule `CCNCc1cc(Nc2cc(C)nc(/N=C(\N)Nc3ccc(Cl)c(Cl)c3)n2)ccc1OC`, the T/C (endpoint: median survival time, dose: 0.8 mg/kg/injection, schedule: Q01DX009 (ip), vehicle: Klucel (hydroxypropylcellulose) (HPC), higher = longer survival) is 96 % of control; the T/C (endpoint: median survival time, dose: 1.56 mg/kg/injection, schedule: Q01DX009 (ip), vehicle: Klucel (hydroxypropylcellulose) (HPC), higher = longer survival) was 100 % of control; the T/C (endpoint: median survival time, dose: 3.12 mg/kg/injection, schedule: Q01DX009 (ip), vehicle: Klucel (hydroxypropylcellulose) (HPC), higher = longer survival) is 96 % of control.
Take `CCC(C)C1NC(=O)C(NC(=O)c2c3nc4c(C(=O)NC5C(=O)NC(C(C)C)C(=O)N6CCCC6C(=O)N(C)CC(=O)N(C)C(C(C)C)C(=O)OC5C)ccc(C)c4oc-3c(C)c(=O)c2N)C(C)OC(=O)C(C(C)C)N(C)C(=O)CN(C)C(=O)C2CCCN2C1=O` (configuration not stated) (I: TIP[Sar][NMeV] / II: TVP[Sar][NMeV]; ester I:1-I:C, II:1-II:C; linker I:N-II:N via Actinocin(1to9); configuration not given here): the T/C runs as follows: (endpoint: median survival time, dose: 12.5 micrograms/kg/injection, schedule: Q01DX009 (ip), vehicle: water, higher = longer survival) 111 % of control; (endpoint: median survival time, dose: 25.0 micrograms/kg/injection, schedule: Q01DX009 (ip), vehicle: water, higher = longer survival) 112 % of control; (endpoint: median survival time, dose: 50.0 micrograms/kg/injection, schedule: Q01DX009 (ip), vehicle: water, higher = longer survival) 112 % of control; (endpoint: median survival time, dose: 75.0 micrograms/kg/injection, schedule: Q04DX003 (ip), vehicle: water, higher = longer survival) 100 % of control; (endpoint: median survival time, dose: 150.0 micrograms/kg/injection, schedule: Q04DX003 (ip), vehicle: water, higher = longer survival) 108 % of control; (endpoint: median survival time, dose: 300.0 micrograms/kg/injection, schedule: Q04DX003 (ip), vehicle: water, higher = longer survival) 154 % of control.
As for `CC1OC(Oc2c(-c3ccc(O)c(O)c3)oc3cc(O)cc(O)c3c2=O)C(O)C(O)C1O` (configuration not stated), the T/C reads like this: (endpoint: mean tumor weight, dose: 62.5 mg/kg/injection, schedule: Q01DX011 (ip), vehicle: saline, higher = larger tumour) 92 % of control; (endpoint: mean tumor weight, dose: 125.0 mg/kg/injection, schedule: Q01DX011 (ip), vehicle: saline, higher = larger tumour) 93 % of control; (endpoint: mean tumor weight, dose: 250.0 mg/kg/injection, schedule: Q01DX011 (ip), vehicle: saline, higher = larger tumour) 99 % of control; (endpoint: mean tumor weight, dose: 500.0 mg/kg/injection, schedule: Q01DX011 (ip), vehicle: saline, higher = larger tumour) 51 % of control.
`CC(=O)Nc1ccc2nc3ccc(NC(C)=O)cc3[n+](-c3ccccc3)c2c1`: the T/C by setting is: (endpoint: mean tumor weight, dose: 12.5 mg/kg/injection, schedule: Q01DX011 (ip), vehicle: saline, higher = larger tumour) 61 % of control; (endpoint: mean tumor weight, dose: 25.0 mg/kg/injection, schedule: Q01DX011 (ip), vehicle: saline, higher = larger tumour) 79 % of control; (endpoint: mean tumor weight, dose: 50.0 mg/kg/injection, schedule: Q01DX011 (ip), vehicle: saline, higher = larger tumour) 59 % of control.
For the molecule `CCN(CC)c1nc(N(CC)CC)nc(N(CC)CC)n1`, the T/C is 95 % of control under setting [3]; 105 % of control under setting [4]; 95 % of control under setting [5]; 104 % of control under setting [6]; 89 % of control (endpoint: median survival time, dose: 400.0 mg/kg/injection, schedule: Q01DX009 (ip), vehicle: saline with Tween-80, higher = longer survival).
Turning to `COc1cc2c(c(OC)c1OC)-c1ccc(OC)c(=O)cc1[C@@H](NC(C)=O)CC2`, the T/C is 65 % of control (endpoint: mean tumor weight, dose: 0.06 mg/kg/injection, schedule: Q01DX011 (ip), vehicle: saline, higher = larger tumour); 61 % of control (endpoint: mean tumor weight, dose: 0.12 mg/kg/injection, schedule: Q01DX011 (ip), vehicle: saline, higher = larger tumour); 46 % of control (endpoint: mean tumor weight, dose: 0.25 mg/kg/injection, schedule: Q01DX011 (ip), vehicle: saline, higher = larger tumour); 100 % of control (endpoint: median survival time, dose: 0.13 mg/kg/injection, schedule: Q01DX009 (ip), vehicle: saline, higher = longer survival); 98 % of control (endpoint: median survival time, dose: 0.25 mg/kg/injection, schedule: Q01DX009 (ip), vehicle: saline, higher = longer survival); 99 % of control (endpoint: median survival time, dose: 0.5 mg/kg/injection, schedule: Q01DX009 (ip), vehicle: saline, higher = longer survival). For the same molecule, the T/C (endpoint: median survival time, dose: 63.0 micrograms/kg/injection, schedule: Q01DX009 (ip), vehicle: saline, higher = longer survival) is 103 % of control; the T/C (endpoint: median survival time, dose: 125.0 micrograms/kg/injection, schedule: Q01DX009 (ip), vehicle: saline, higher = longer survival) is 106 % of control; the T/C (endpoint: median survival time, dose: 250.0 micrograms/kg/injection, schedule: Q01DX009 (ip), vehicle: saline, higher = longer survival) was 108 % of control; the T/C (endpoint: median survival time, dose: 500.0 micrograms/kg/injection, schedule: Q01DX009 (ip), vehicle: saline, higher = longer survival) is 108 % of control; the T/C (endpoint: median survival time, dose: 1000.0 micrograms/kg/injection, schedule: Q01DX009 (ip), vehicle: saline, higher = longer survival) was 91 % of control.
